Test results taken from patent US12138277B2, “Oligosaccharides for use in the treatment of Parkinson's disease” (UNIVERSITA' DEGLI STUDI DI MILANO, priority 2018, dated 2024).

Tests used:
[1] = test system: Neuroblastoma cells; assay: Excitotoxicity protection: DCB-induced death of neuroblastoma cells; assay type: cell-based
Protocol: In Parkinson's disease, and more generally in the degenerative diseases of the central nervous system, there is a strong activation of the immune system, oxidative stress and excitotoxicity. Neuroblastoma cells were then treated with DCB (3′,4′-Dichlorobenzamyl hydrochloride) to induce an accumulation of intracellular calcium, an experimental strategy which mimics glutamate-induced excitotoxicity.

[2] = test system: Neuroblastoma cells of murine origin; assay: Proteomic analysis by mass spectroscopy of treated neuroblastoma cells; assay type: cell-based; conditions: after 24 h of treatment
Protocol: Neuroblastoma cells of murine origin were treated with β-Gal-(1-3)-β-GalNAc-(1-4)-[α-Neu5Ac-(2-3)]-β-Gal-(1-4)-Glc to induce neuronal differentiation (Chiricozzi et al. 2017 Journal of Neurochemistry 143:645-659). After 24 h of treatment, the cells were collected for protein analysis. […] These proteins are involved in cellular signaling of i) excitotoxicity neuroprotection; ii) inhibition of oxidative stress; iii) inhibition of microglia hyperactivation and downregulation of proinflammatory molecules.

[3] = Crossing of the blood-brain barrier: radioactivity in brain areas after administration of tritiated oligosaccharide; assay type: in vivo, Wild-type mice (C57BL/6); conditions: intraperitoneal, subcutaneous or intravenous administration; 10 μg tritiated oligosaccharide; 1 hour and 22 hours after administration
Protocol: Wild-type mice (C57BL/6) of about 3 months were treated with β-[6-^3H]Gal-(1-3)-β-GalNAc-(1-4)-[α-Neu5Ac-(2-3)]-β-Gal-(1-4)-Glc.
Administration was performed intraperitoneally, subcutaneously or intravenously (Orlando P. et al 1979, Pharmacological Research Communications 11:759-773). For the intravenous route, the injection was performed in the central vein of the tail. The treatment was carried out with 10 μg of tritiated oligosaccharide (10 μCi) dissolved in 0.1 ml of saline. For each experimental group 5 animals were used. 1 hour and 22 hours after administration, the animals were sacrificed by cardiac perfusion (10 min), in order to remove the blood, especially in the central nervous system. The brain was removed and the different areas (cortex, hippocampus, substantia nigra, cerebellum, trunk) were identified and separated. Tissue samples were lyophilized, homogenized and the relative associated radioactivity was detected at the β-counter (Orlando et al 1979, Pharmacological Research Communication 11:759-773).

| Compound | toxicity of the oligosaccharide to cells ([1]; neuroblastoma cells) | protection of cells from DCB-induced death ([1]; neuroblastoma cells treated with DCB (3′,4′-Dichlorobenzamyl hydrochloride)) | number of proteins whose expression is induced [2] | oligosaccharide reaching the central nervous system / crossing the blood-brain barrier (associated radioactivity in brain areas) [3] |
| --- | --- | --- | --- | --- |
| CC(=O)N[C@H]1[C@H](O[C@@H]2[C@H](O[C@]3(C(=O)O)C[C@H](O)[C@@H](NC(C)=O)[C@H]([C@H](O)[C@H](O)CO)O3)[C@@H](O)[C@H](O[C@H]3[C@H](O)[C@@H](O)C(O)O[C@@H]3CO)O[C@@H]2CO)O[C@H](CO)[C@H](O)[C@@H]1O[C@@H]1O[C@H](CO)[C@H](O)[C@H](O)[C@H]1O (stereo partly drawn) [β-Gal-(1-3)-β-GalNAc-(1-4)-[α-Neu5Ac-(2-3)]-β-Gal-(1-4)-Glc] | without being toxic to cells | able to protect cells from DCB-induced death | 320 | – |
| β-[6-^3H]Gal-(1-3)-β-GalNAc-(1-4)-[α-Neu5Ac-(2-3)]-β-Gal-(1-4)-Glc | – | – | – | a fair amount of the oligosaccharide is able to reach the central nervous system, including the substantia nigra, within a few hours |
